Laboratory results as given in the supplement of paper PMC13207355.

Assays:
Details in all cases: exposure time: 72 h
[1] = tested on: E28 (patient-derived glioblastoma stem cells of classical subtype); experiment: surviving fraction (nuclei count normalised to DMSO); higher = more cells surviving (less toxic)
[2] = tested on: E13 (patient-derived glioblastoma stem cells of classical subtype); experiment: as above
[3] = tested on: E57 (patient-derived glioblastoma stem cells of mesenchymal subtype); experiment: as above
[4] = tested on: E21 (patient-derived glioblastoma stem cells of mesenchymal subtype); experiment: as above
[5] = tested on: E31 (patient-derived glioblastoma stem cells of proneural subtype); experiment: as above
[6] = tested on: FT3469 (normal neural stem cell line); experiment: as above
[7] = tested on: E34 (patient-derived glioblastoma stem cells of proneural subtype); experiment: as above
[8] = tested on: E28; experiment: phenotypic distance (Euclidean, principal components) from DMSO controls (arbitrary units); higher = stronger morphological change
[9] = tested on: E13; experiment: as above
[10] = tested on: E57; experiment: as above
[11] = tested on: E21; experiment: as above
[12] = tested on: E31; experiment: as above
[13] = tested on: FT3469; experiment: as above
[14] = tested on: E34; experiment: as above
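For phenotypic distance (Euclidean, principal components) from DMSO controls in this document: cell Painting imaging in 384-well plates, CellProfiler features reduced to at least 20 principal components, Euclidean distance versus same-plate DMSO vehicle wells (0.1% v/v), median over six images per well.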
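For surviving fraction (nuclei count normalised to DMSO) in this document: nuclei counted by high-content imaging of Hoechst-stained cells in laminin-coated 384-well plates, relative to 0.1% DMSO vehicle wells, with staurosporine as cell-death control.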

OCCN1C[C@H](O)[C@@H](O)[C@H](O)[C@H]1CO [Miglitol]
Details	phenotypic distance	surviving fraction
[1], 4.11523 nM	–	0.997
[1], 12.34567901 nM	–	0.913
[1], 37.037 nM	–	1.12
[1], 111.1111111 nM	–	0.877
[1], 333.333 nM	–	1.06
[1], 1000 nM	–	1.14
[1], 3000 nM	–	1.03
[2], 4.11523 nM	–	0.886
[2], 12.34567901 nM	–	0.888
[2], 37.037 nM	–	0.938
[2], 111.1111111 nM	–	0.955
[2], 333.333 nM	–	0.951
[2], 1000 nM	–	0.889
[2], 3000 nM	–	0.98
[3], 4.11523 nM	–	1.03
[3], 12.34567901 nM	–	1.03
[3], 37.037 nM	–	1.06
[3], 111.1111111 nM	–	0.966
[3], 333.333 nM	–	0.955
[3], 1000 nM	–	0.997
[3], 3000 nM	–	1.1
[4], 4.11523 nM	–	0.916
[4], 12.34567901 nM	–	0.86
[4], 37.037 nM	–	0.996
[4], 111.1111111 nM	–	0.946
[4], 333.333 nM	–	0.949
[4], 1000 nM	–	0.914
[4], 3000 nM	–	0.993
[5], 4.11523 nM	–	0.768
[5], 12.34567901 nM	–	1.15
[5], 37.037 nM	–	0.954
[5], 111.1111111 nM	–	0.999
[5], 333.333 nM	–	1.01
[5], 1000 nM	–	1.17
[5], 3000 nM	–	0.956
[6], 4.11523 nM	–	0.878
[6], 12.34567901 nM	–	0.954
[6], 37.037 nM	–	0.984
[6], 111.1111111 nM	–	0.963
[6], 333.333 nM	–	1.06
[6], 1000 nM	–	1.07
[6], 3000 nM	–	1.14
[7], 4.11523 nM	–	0.825
[7], 12.34567901 nM	–	1.07
[7], 37.037 nM	–	0.964
[7], 111.1111111 nM	–	1.17
[7], 333.333 nM	–	1.04
[7], 1000 nM	–	0.915
[7], 3000 nM	–	1.14
[8], 4.11523 nM	0.488	–
[8], 12.34567901 nM	0.943	–
[8], 37.037 nM	1.54	–
[8], 111.1111111 nM	0.838	–
[8], 333.333 nM	0.651	–
[8], 1000 nM	0.777	–
[8], 3000 nM	0.637	–
[9], 4.11523 nM	0.578	–
[9], 12.34567901 nM	0.499	–
[9], 37.037 nM	0.296	–
[9], 111.1111111 nM	0.445	–
[9], 333.333 nM	0.7	–
[9], 1000 nM	0.441	–
[9], 3000 nM	0.584	–
[10], 4.11523 nM	0.469	–
[10], 12.34567901 nM	0.849	–
[10], 37.037 nM	0.936	–
[10], 111.1111111 nM	0.643	–
[10], 333.333 nM	0.643	–
[10], 1000 nM	0.624	–
[10], 3000 nM	0.981	–
[11], 4.11523 nM	0.913	–
[11], 12.34567901 nM	0.734	–
[11], 37.037 nM	0.73	–
[11], 111.1111111 nM	0.986	–
[11], 333.333 nM	0.413	–
[11], 1000 nM	0.51	–
[11], 3000 nM	0.737	–
[12], 4.11523 nM	0.64	–
[12], 12.34567901 nM	0.762	–
[12], 37.037 nM	0.853	–
[12], 111.1111111 nM	0.501	–
[12], 333.333 nM	0.613	–
[12], 1000 nM	0.778	–
[12], 3000 nM	0.647	–
[13], 4.11523 nM	3.01	–
[13], 12.34567901 nM	0.609	–
[13], 37.037 nM	0.908	–
[13], 111.1111111 nM	0.767	–
[13], 333.333 nM	0.996	–
[13], 1000 nM	0.816	–
[13], 3000 nM	0.734	–
[14], 4.11523 nM	0.65	–
[14], 12.34567901 nM	0.713	–
[14], 37.037 nM	0.625	–
[14], 111.1111111 nM	0.702	–
[14], 333.333 nM	0.456	–
[14], 1000 nM	0.679	–
[14], 3000 nM	0.758	–

C[C@@H]1C[C@@H]([C@H](O)CC2CC(=O)NC(=O)C2)C(=O)[C@@H](C)C1 [Cycloheximide]
Details	phenotypic distance	surviving fraction
[1], 4.1 nM	–	0.899
[1], 12.3 nM	–	0.76
[1], 37 nM	–	0.771
[1], 111.1 nM	–	0.592
[1], 333.3 nM	–	0.542
[1], 1000 nM	–	0.346
[1], 3000 nM	–	0.451
[2], 4.1 nM	–	0.769
[2], 12.3 nM	–	0.713
[2], 37 nM	–	0.644
[2], 111.1 nM	–	0.654
[2], 333.3 nM	–	0.436
[2], 1000 nM	–	0.408
[2], 3000 nM	–	0.306
[3], 4.1 nM	–	0.723
[3], 12.3 nM	–	0.694
[3], 37 nM	–	0.546
[3], 111.1 nM	–	0.511
[3], 333.3 nM	–	0.322
[3], 1000 nM	–	0.323
[3], 3000 nM	–	0.227
[4], 4.1 nM	–	0.753
[4], 12.3 nM	–	0.688
[4], 37 nM	–	0.532
[4], 111.1 nM	–	0.518
[4], 333.3 nM	–	0.443
[4], 1000 nM	–	0.356
[4], 3000 nM	–	0.305
[5], 4.1 nM	–	0.854
[5], 12.3 nM	–	0.905
[5], 37 nM	–	0.703
[5], 111.1 nM	–	0.684
[5], 333.3 nM	–	0.477
[5], 1000 nM	–	0.297
[5], 3000 nM	–	0.261
[6], 4.1 nM	–	0.912
[6], 12.3 nM	–	0.753
[6], 37 nM	–	0.87
[6], 111.1 nM	–	0.918
[6], 333.3 nM	–	0.691
[6], 1000 nM	–	0.723
[6], 3000 nM	–	0.633
[7], 4.1 nM	–	0.885
[7], 12.3 nM	–	0.873
[7], 37 nM	–	0.815
[7], 111.1 nM	–	0.616
[7], 333.3 nM	–	0.562
[7], 1000 nM	–	0.584
[7], 3000 nM	–	0.414
[8], 4.1 nM	0.801	–
[8], 12.3 nM	0.904	–
[8], 37 nM	0.979	–
[8], 111.1 nM	1.14	–
[8], 333.3 nM	1.17	–
[8], 1000 nM	1.95	–
[8], 3000 nM	2.12	–
[9], 4.1 nM	1.33	–
[9], 12.3 nM	5.02	–
[9], 37 nM	1.69	–
[9], 111.1 nM	1.77	–
[9], 333.3 nM	3.18	–
[9], 1000 nM	3.1	–
[9], 3000 nM	4.48	–
[10], 4.1 nM	1.49	–
[10], 12.3 nM	1.61	–
[10], 37 nM	2.55	–
[10], 111.1 nM	2.56	–
[10], 333.3 nM	4.4	–
[10], 1000 nM	4.89	–
[10], 3000 nM	4.79	–
[11], 4.1 nM	1.69	–
[11], 12.3 nM	1.77	–
[11], 37 nM	2.65	–
[11], 111.1 nM	3.3	–
[11], 333.3 nM	5.28	–
[11], 1000 nM	4.65	–
[11], 3000 nM	3.46	–
[12], 4.1 nM	0.95	–
[12], 12.3 nM	0.932	–
[12], 37 nM	1.32	–
[12], 111.1 nM	1.7	–
[12], 333.3 nM	2.21	–
[12], 1000 nM	2.11	–
[12], 3000 nM	3	–
[13], 4.1 nM	0.852	–
[13], 12.3 nM	0.622	–
[13], 37 nM	1.06	–
[13], 111.1 nM	1.36	–
[13], 333.3 nM	5.19	–
[13], 1000 nM	1.49	–
[13], 3000 nM	1.95	–
[14], 4.1 nM	1.3	–
[14], 12.3 nM	0.758	–
[14], 37 nM	0.919	–
[14], 111.1 nM	1.49	–
[14], 333.3 nM	1.35	–
[14], 1000 nM	2.05	–
[14], 3000 nM	3.12	–
